Test results: patent US10472341B2, “Bicyclic tetrahydrothiazepine derivatives useful for the treatment of neoplastic and/or infectious diseases” (APEIRON BIOLOGICS AG, priority 2015, dated 2019)

Test system: CD8 cells & tumor cell lines (K562, M21, CRL2505, MDA-MB-231, A549, TC71, MG63, RD, U138MG)
Test: Isolated CD8 cells in co-culture with tumor cell lines of diverse origin: IFN-gamma, IL-2, granzyme
Assay type: cell-based, human
Procedure: Isolated PBMCs, NK cells or CD8 positive cells were plated in Xvivo medium at 1.5*10^5 cells per in 96 well culture plates in the presence of 0.3*10^4 tumor cells where indicated. Cytokine secretion was determined by ELISA, immune cell activation (using Beckman-Coulter Abs CD25-PC5, CD69-PC7), cell viability and numbers by flow cytometry (Beckman-Coulter FC500 or Gallios) using 7-AAD exclusion as criterion for living cells. PBMCs were isolated and incubated with and without compounds, either alone or in co-culture with different tumor cells.

`Cl.N[C@H]1CS(=O)(=O)c2cc(F)c(C(=O)NCCCC(F)(F)F)cc2N(Cc2ccc(Cl)cc2)C1=O` [Example 70, (3R)-3-amino-5-[(4-chlorophenyl)methyl]-8-fluoro-1,1,4-trioxo-N-(4,4,4-trifluoro-butyl)-2,3,4,5-tetrahydro-1λ^6,5-benzothiazepine-7-carboxamide hydrochloride] gave a Granzyme (CD8 cells & A549, 0.1 μM) of 0.04 ng/mL, an IFN-gamma (CD8 cells & A549, 0.1 μM) of 0.01 ng/mL and an IL-2 (CD8 cells & A549, 0.1 μM) of 0.00 ng/mL. It also gave a Granzyme (CD8 cells & A549, 0.3 μM) of 0.09 ng/mL, an IFN-gamma (CD8 cells & A549, 0.3 μM) of 0.03 ng/mL and an IL-2 (CD8 cells & A549, 0.3 μM) of 0.15 ng/mL. For the same molecule, the Granzyme (CD8 cells & A549, 1 μM) was 0.10 ng/mL, the IFN-gamma (CD8 cells & A549, 1 μM) was 0.08 ng/mL and the IL-2 (CD8 cells & A549, 1 μM) was 0.36 ng/mL. It also gave a Granzyme (CD8 cells & A549, 3 μM) of 0.07 ng/mL, an IFN-gamma (CD8 cells & A549, 3 μM) of 0.07 ng/mL and an IL-2 (CD8 cells & A549, 3 μM) of 0.28 ng/mL. For the same molecule, the Granzyme (CD8 cells & A549, 10 μM) was 0.16 ng/mL, the IFN-gamma (CD8 cells & A549, 10 μM) was 0.16 ng/mL and the IL-2 (CD8 cells & A549, 10 μM) was 0.59 ng/mL. For the same molecule, the Granzyme (CD8 cells & K562, 0.1 μM) was 1.58 ng/mL, the IFN-gamma (CD8 cells & K562, 0.1 μM) was 6.97 ng/mL and the IL-2 (CD8 cells & K562, 0.1 μM) was 3.86 ng/mL. For the same molecule, the Granzyme (CD8 cells & K562, 0.3 μM) was 2.38 ng/mL, the IFN-gamma (CD8 cells & K562, 0.3 μM) was 7.57 ng/mL and the IL-2 (CD8 cells & K562, 0.3 μM) was 3.20 ng/mL. The Granzyme (CD8 cells & K562, 1 μM) was 1.81 ng/mL, the IFN-gamma (CD8 cells & K562, 1 μM) was 11.23 ng/mL and the IL-2 (CD8 cells & K562, 1 μM) was 4.08 ng/mL. For the same molecule, the Granzyme (CD8 cells & K562, 3 μM) was 3.91 ng/mL, the IFN-gamma (CD8 cells & K562, 3 μM) was 8.44 ng/mL and the IL-2 (CD8 cells & K562, 3 μM) was 3.72 ng/mL. For the same molecule, the Granzyme (CD8 cells & K562, 10 μM) was 4.83 ng/mL, the IFN-gamma (CD8 cells & K562, 10 μM) was 8.26 ng/mL and the IL-2 (CD8 cells & K562, 10 μM) was 2.82 ng/mL. For the same molecule, the Granzyme (CD8 cells & M21, 0.1 μM) was 0.24 ng/mL, the IFN-gamma (CD8 cells & M21, 0.1 μM) was 0.00 ng/mL and the IL-2 (CD8 cells & M21, 0.1 μM) was 0.39 ng/mL. For the same molecule, the Granzyme (CD8 cells & M21, 0.3 μM) was 0.53 ng/mL, the IFN-gamma (CD8 cells & M21, 0.3 μM) was 0.02 ng/mL and the IL-2 (CD8 cells & M21, 0.3 μM) was 0.31 ng/mL. For the same molecule, the Granzyme (CD8 cells & M21, 1 μM) was 0.41 ng/mL, the IFN-gamma (CD8 cells & M21, 1 μM) was 0.06 ng/mL and the IL-2 (CD8 cells & M21, 1 μM) was 0.67 ng/mL. The Granzyme (CD8 cells & M21, 3 μM) was 0.40 ng/mL, the IFN-gamma (CD8 cells & M21, 3 μM) was 0.03 ng/mL and the IL-2 (CD8 cells & M21, 3 μM) was 0.64 ng/mL. The Granzyme (CD8 cells & M21, 10 μM) was 0.50 ng/mL, the IFN-gamma (CD8 cells & M21, 10 μM) was 0.10 ng/mL and the IL-2 (CD8 cells & M21, 10 μM) was 0.47 ng/mL. It also gave a Granzyme (CD8 cells & MDA-MB-231, 0.1 μM) of 1.86 ng/mL, an IFN-gamma (CD8 cells & MDA-MB-231, 0.1 μM) of 10.72 ng/mL and an IL-2 (CD8 cells & MDA-MB-231, 0.1 μM) of 1.51 ng/mL. It also gave a Granzyme (CD8 cells & MDA-MB-231, 0.3 μM) of 3.40 ng/mL, an IFN-gamma (CD8 cells & MDA-MB-231, 0.3 μM) of 20.55 ng/mL and an IL-2 (CD8 cells & MDA-MB-231, 0.3 μM) of 2.14 ng/mL. The Granzyme (CD8 cells & MDA-MB-231, 1 μM) was 4.23 ng/mL, the IFN-gamma (CD8 cells & MDA-MB-231, 1 μM) was 22.31 ng/mL and the IL-2 (CD8 cells & MDA-MB-231, 1 μM) was 2.40 ng/mL. The Granzyme (CD8 cells & MDA-MB-231, 3 μM) was 5.20 ng/mL, the IFN-gamma (CD8 cells & MDA-MB-231, 3 μM) was 25.24 ng/mL and the IL-2 (CD8 cells & MDA-MB-231, 3 μM) was 3.21 ng/mL. For the same molecule, the Granzyme (CD8 cells & MDA-MB-231, 10 μM) was 5.93 ng/mL, the IFN-gamma (CD8 cells & MDA-MB-231, 10 μM) was 24.22 ng/mL and the IL-2 (CD8 cells & MDA-MB-231, 10 μM) was 3.63 ng/mL. For the same molecule, the Granzyme (CD8 cells & MG63, 0.1 μM) was 0.23 ng/mL, the IFN-gamma (CD8 cells & MG63, 0.1 μM) was 0.92 ng/mL and the IL-2 (CD8 cells & MG63, 0.1 μM) was 0.00 ng/mL. For the same molecule, the Granzyme (CD8 cells & MG63, 0.3 μM) was 0.29 ng/mL, the IFN-gamma (CD8 cells & MG63, 0.3 μM) was 1.43 ng/mL and the IL-2 (CD8 cells & MG63, 0.3 μM) was 0.00 ng/mL. For the same molecule, the Granzyme (CD8 cells & MG63, 1 μM) was 0.28 ng/mL, the IFN-gamma (CD8 cells & MG63, 1 μM) was 1.79 ng/mL and the IL-2 (CD8 cells & MG63, 1 μM) was 0.00 ng/mL. The Granzyme (CD8 cells & MG63, 3 μM) was 0.38 ng/mL, the IFN-gamma (CD8 cells & MG63, 3 μM) was 1.92 ng/mL and the IL-2 (CD8 cells & MG63, 3 μM) was 0.00 ng/mL. The Granzyme (CD8 cells & MG63, 10 μM) was 0.44 ng/mL, the IFN-gamma (CD8 cells & MG63, 10 μM) was 2.36 ng/mL and the IL-2 (CD8 cells & MG63, 10 μM) was 0.00 ng/mL. It also gave a Granzyme (CD8 cells & RD, 0.1 μM) of 0.09 ng/mL, an IFN-gamma (CD8 cells & RD, 0.1 μM) of 0.12 ng/mL and an IL-2 (CD8 cells & RD, 0.1 μM) of 0.00 ng/mL. For the same molecule, the Granzyme (CD8 cells & RD, 0.3 μM) was 0.16 ng/mL, the IFN-gamma (CD8 cells & RD, 0.3 μM) was 0.45 ng/mL and the IL-2 (CD8 cells & RD, 0.3 μM) was 0.00 ng/mL. For the same molecule, the Granzyme (CD8 cells & RD, 1 μM) was 0.20 ng/mL, the IFN-gamma (CD8 cells & RD, 1 μM) was 0.54 ng/mL and the IL-2 (CD8 cells & RD, 1 μM) was 0.00 ng/mL. The Granzyme (CD8 cells & RD, 3 μM) was 0.17 ng/mL, the IFN-gamma (CD8 cells & RD, 3 μM) was 0.65 ng/mL and the IL-2 (CD8 cells & RD, 3 μM) was 0.00 ng/mL. The Granzyme (CD8 cells & RD, 10 μM) was 0.30 ng/mL, the IFN-gamma (CD8 cells & RD, 10 μM) was 1.59 ng/mL and the IL-2 (CD8 cells & RD, 10 μM) was 0.00 ng/mL. It also gave a Granzyme (CD8 cells & TC71, 0.1 μM) of 0.06 ng/mL, an IFN-gamma (CD8 cells & TC71, 0.1 μM) of 0.04 ng/mL and an IL-2 (CD8 cells & TC71, 0.1 μM) of 0.58 ng/mL. It also gave a Granzyme (CD8 cells & TC71, 0.3 μM) of 0.08 ng/mL, an IFN-gamma (CD8 cells & TC71, 0.3 μM) of 0.11 ng/mL and an IL-2 (CD8 cells & TC71, 0.3 μM) of 0.97 ng/mL. The Granzyme (CD8 cells & TC71, 1 μM) was 0.10 ng/mL, the IFN-gamma (CD8 cells & TC71, 1 μM) was 0.14 ng/mL and the IL-2 (CD8 cells & TC71, 1 μM) was 1.25 ng/mL. It also gave a Granzyme (CD8 cells & TC71, 3 μM) of 0.10 ng/mL, an IFN-gamma (CD8 cells & TC71, 3 μM) of 0.27 ng/mL and an IL-2 (CD8 cells & TC71, 3 μM) of 1.14 ng/mL. For the same molecule, the Granzyme (CD8 cells & TC71, 10 μM) was 0.15 ng/mL, the IFN-gamma (CD8 cells & TC71, 10 μM) was 0.38 ng/mL and the IL-2 (CD8 cells & TC71, 10 μM) was 1.57 ng/mL. The Granzyme (CD8 cells & U138MG, 0.1 μM) was 0.03 ng/mL, the IFN-gamma (CD8 cells & U138MG, 0.1 μM) was 0.00 ng/mL and the IL-2 (CD8 cells & U138MG, 0.1 μM) was 0.00 ng/mL. For the same molecule, the Granzyme (CD8 cells & U138MG, 0.3 μM) was 0.04 ng/mL, the IFN-gamma (CD8 cells & U138MG, 0.3 μM) was 0.01 ng/mL and the IL-2 (CD8 cells & U138MG, 0.3 μM) was 0.00 ng/mL. It also gave a Granzyme (CD8 cells & U138MG, 1 μM) of 0.01 ng/mL, an IFN-gamma (CD8 cells & U138MG, 1 μM) of 0.02 ng/mL and an IL-2 (CD8 cells & U138MG, 1 μM) of 0.04 ng/mL. For the same molecule, the Granzyme (CD8 cells & U138MG, 3 μM) was 0.03 ng/mL, the IFN-gamma (CD8 cells & U138MG, 3 μM) was 0.02 ng/mL and the IL-2 (CD8 cells & U138MG, 3 μM) was 0.02 ng/mL. It also gave a Granzyme (CD8 cells & U138MG, 10 μM) of 0.05 ng/mL, an IFN-gamma (CD8 cells & U138MG, 10 μM) of 0.06 ng/mL and an IL-2 (CD8 cells & U138MG, 10 μM) of 0.08 ng/mL. It also gave a Granzyme (CD8 cells only, 0.1 μM) of 0.05 ng/mL, an IFN-gamma (CD8 cells only, 0.1 μM) of 0.00 ng/mL and an IL-2 (CD8 cells only, 0.1 μM) of 0.00 ng/mL. It also gave a Granzyme (CD8 cells only, 0.3 μM) of 0.04 ng/mL, an IFN-gamma (CD8 cells only, 0.3 μM) of 0.00 ng/mL and an IL-2 (CD8 cells only, 0.3 μM) of 0.00 ng/mL. It also gave a Granzyme (CD8 cells only, 1 μM) of 0.05 ng/mL, an IFN-gamma (CD8 cells only, 1 μM) of 0.00 ng/mL and an IL-2 (CD8 cells only, 1 μM) of 0.00 ng/mL. It also gave a Granzyme (CD8 cells only, 3 μM) of 0.04 ng/mL, an IFN-gamma (CD8 cells only, 3 μM) of 0.00 ng/mL and an IL-2 (CD8 cells only, 3 μM) of 0.00 ng/mL. The Granzyme (CD8 cells only, 10 μM) was 0.05 ng/mL, the IFN-gamma (CD8 cells only, 10 μM) was 0.00 ng/mL and the IL-2 (CD8 cells only, 10 μM) was 0.00 ng/mL.
